pEC50, pIC50, pKi: −log10 of the molar value. Calls of active or inactive are those of the source. The calls are words filed in the database; no cut-off is given here.
Experiments:
[1] = target: Fibroblast growth factor receptor 3 (Homo sapiens, UniProt P22607); assay: Inhibition of human FGFR3 using ATP as substrate
[2] = Oral bioavailability in Sprague-Dawley rat at 5 mg/kg; type: ADME, organism-based; conditions: in vivo
[3] = Half life in Sprague-Dawley rat at 5 mg/kg, po; type: ADME, organism-based; design: dose 5 mg/kg, route oral; conditions: in vivo
[4] = target: Tyrosine-protein kinase ABL1 (Homo sapiens) (UniProt P00519); assay: Inhibition of ABL at 1 uM
[5] = target: Receptor-type tyrosine-protein kinase FLT3 (Homo sapiens, UniProt P36888); assay: Inhibition of human FLT3 using ATP as substrate
[6] = Oral bioavailability in cynomolgus monkey at 3 mg/kg; type: ADME, organism-based, Macaca fascicularis; conditions: in vivo
A-375 [7] = assay: Antitumor activity against human A375 cells xenografted in athymic nude mouse assessed as partial tumor regression at 0.3 mg/kg, po bid
HUVEC [8] = assay: Antiangiogenic activity in HUVEC assessed as inhibition of capillary-tube formation by matrigel assay; type: functional, cell-based; conditions: Homo sapiens
[9] = Cmax in athymic nude mouse tumor xenografted with human A375 cells at 10 mg/kg, po
[10] = target: Muscarinic acetylcholine receptor M4 (Homo sapiens, UniProt P08173); assay: Inhibition of muscarinic M4 receptor
[11] = target: Epidermal growth factor receptor (Homo sapiens) (UniProt P00533); assay: Inhibition of EGFR at 1 uM
[12] = Toxicity in dog purkinje fibres assessed as drug-induced change in action potential; type: tissue-based, Canis lupus familiaris, Purkinje fiber
[13] = target: Adenosine receptor A3 (Homo sapiens) (UniProt P0DMS8); assay: Inhibition of adenosine A3 receptor at 10 uM
Adenosine receptor A3 (Homo sapiens), sequence (P0DMS8 whole entry): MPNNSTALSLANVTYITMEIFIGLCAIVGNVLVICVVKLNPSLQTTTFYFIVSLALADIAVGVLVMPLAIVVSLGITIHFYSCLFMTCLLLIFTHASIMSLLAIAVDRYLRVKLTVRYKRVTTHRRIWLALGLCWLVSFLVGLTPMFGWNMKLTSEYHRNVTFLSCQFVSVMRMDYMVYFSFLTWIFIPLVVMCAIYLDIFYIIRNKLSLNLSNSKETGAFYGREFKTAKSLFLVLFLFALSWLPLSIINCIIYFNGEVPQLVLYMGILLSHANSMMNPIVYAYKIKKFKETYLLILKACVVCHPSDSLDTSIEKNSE

[14] = AUC in cynomolgus monkey at 3 mg/kg, po; type: ADME, organism-based, Macaca fascicularis; design: dose 3 mg/kg, route oral; conditions: plasma
Adenosine receptor A2a [15] = target: T1, Adenosine receptor A2a (Homo sapiens, UniProt P29274); assay: Inhibition of adenosine A2A receptor at 10 uM
T1 sequence (P29274 whole entry): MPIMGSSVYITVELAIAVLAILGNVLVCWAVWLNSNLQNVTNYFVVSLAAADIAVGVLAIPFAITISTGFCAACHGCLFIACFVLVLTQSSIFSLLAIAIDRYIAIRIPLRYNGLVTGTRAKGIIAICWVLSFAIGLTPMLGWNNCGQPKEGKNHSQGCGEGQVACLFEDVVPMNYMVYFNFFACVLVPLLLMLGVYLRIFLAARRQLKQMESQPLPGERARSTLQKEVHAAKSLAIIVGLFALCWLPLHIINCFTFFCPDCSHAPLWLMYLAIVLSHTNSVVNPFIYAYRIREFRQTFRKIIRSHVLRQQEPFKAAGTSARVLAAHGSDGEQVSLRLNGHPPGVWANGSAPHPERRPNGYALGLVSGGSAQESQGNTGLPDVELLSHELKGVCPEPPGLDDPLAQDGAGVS

[16] = Apparent permeability across human Caco2 cells; type: ADME, cell-based; conditions: Caco-2
[17] = target: High affinity nerve growth factor receptor (Homo sapiens, UniProt P04629); assay: Inhibition of human TRK-A using ATP as substrate
High affinity nerve growth factor receptor, sequence (P04629 whole entry): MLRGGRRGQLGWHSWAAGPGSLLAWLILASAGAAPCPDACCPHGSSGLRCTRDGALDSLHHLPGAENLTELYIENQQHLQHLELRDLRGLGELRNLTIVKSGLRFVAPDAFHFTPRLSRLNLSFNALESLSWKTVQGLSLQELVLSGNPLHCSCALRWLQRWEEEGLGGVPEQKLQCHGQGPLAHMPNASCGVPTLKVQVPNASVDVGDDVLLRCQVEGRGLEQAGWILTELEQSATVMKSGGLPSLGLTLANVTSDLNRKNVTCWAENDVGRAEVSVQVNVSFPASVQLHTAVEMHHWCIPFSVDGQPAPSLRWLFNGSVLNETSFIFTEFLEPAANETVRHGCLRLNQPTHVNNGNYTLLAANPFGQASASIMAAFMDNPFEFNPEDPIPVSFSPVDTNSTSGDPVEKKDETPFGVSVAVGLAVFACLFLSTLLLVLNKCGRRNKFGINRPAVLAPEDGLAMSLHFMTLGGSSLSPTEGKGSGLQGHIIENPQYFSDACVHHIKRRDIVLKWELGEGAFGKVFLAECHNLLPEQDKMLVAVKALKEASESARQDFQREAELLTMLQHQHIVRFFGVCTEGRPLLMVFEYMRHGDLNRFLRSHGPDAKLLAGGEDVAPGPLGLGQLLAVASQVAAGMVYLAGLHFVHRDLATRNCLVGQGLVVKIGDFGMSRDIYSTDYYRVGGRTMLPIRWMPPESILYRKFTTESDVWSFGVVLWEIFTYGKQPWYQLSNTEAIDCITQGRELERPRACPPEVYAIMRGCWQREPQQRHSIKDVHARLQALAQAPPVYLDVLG

A-375 [18] = assay: Antitumor activity against human A375 cells xenografted in athymic nude mouse assessed as tumor growth inhibition at 0.3 mg/kg, po bid measured on day 29 relative to control; type: functional; conditions: A-375, 696 h, read-out: GI
A-375 [19] = assay: Antitumor activity against human A375 cells xenografted in athymic nude mouse assessed as partial tumor regression at 1 mg/kg, po bid; type: functional
HUVEC [20] = assay: Antiangiogenic activity in HUVEC assessed as inhibition of VEGF-induced survival; type: functional, cell-based; conditions: Homo sapiens
[21] = Antiangiogenic activity in HMVEC assessed as inhibition of VEGF-induced proliferation; type: functional; conditions: Homo sapiens
Cytochrome P450 3A4 [22] = target: T2, Cytochrome P450 3A4 (Homo sapiens, UniProt P08684); assay: Induction of CYP3A4; type: ADME
T2 sequence (P08684 whole entry): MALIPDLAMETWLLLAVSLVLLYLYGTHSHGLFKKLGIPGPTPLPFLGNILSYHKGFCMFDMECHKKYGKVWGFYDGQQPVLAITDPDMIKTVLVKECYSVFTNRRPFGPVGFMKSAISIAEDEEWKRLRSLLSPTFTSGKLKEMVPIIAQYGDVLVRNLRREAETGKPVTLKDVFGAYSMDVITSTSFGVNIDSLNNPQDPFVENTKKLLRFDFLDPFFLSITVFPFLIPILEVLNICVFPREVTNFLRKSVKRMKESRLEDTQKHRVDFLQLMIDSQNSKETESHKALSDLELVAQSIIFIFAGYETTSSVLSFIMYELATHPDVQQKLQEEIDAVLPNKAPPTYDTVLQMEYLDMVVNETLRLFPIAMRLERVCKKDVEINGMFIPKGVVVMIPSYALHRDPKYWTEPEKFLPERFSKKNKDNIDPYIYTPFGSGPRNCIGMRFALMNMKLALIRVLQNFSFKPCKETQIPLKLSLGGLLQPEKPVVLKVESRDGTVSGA

[23] = target: T3, Vascular endothelial growth factor receptor 2 (Homo sapiens, UniProt P35968)
T3 sequence (P35968 whole entry): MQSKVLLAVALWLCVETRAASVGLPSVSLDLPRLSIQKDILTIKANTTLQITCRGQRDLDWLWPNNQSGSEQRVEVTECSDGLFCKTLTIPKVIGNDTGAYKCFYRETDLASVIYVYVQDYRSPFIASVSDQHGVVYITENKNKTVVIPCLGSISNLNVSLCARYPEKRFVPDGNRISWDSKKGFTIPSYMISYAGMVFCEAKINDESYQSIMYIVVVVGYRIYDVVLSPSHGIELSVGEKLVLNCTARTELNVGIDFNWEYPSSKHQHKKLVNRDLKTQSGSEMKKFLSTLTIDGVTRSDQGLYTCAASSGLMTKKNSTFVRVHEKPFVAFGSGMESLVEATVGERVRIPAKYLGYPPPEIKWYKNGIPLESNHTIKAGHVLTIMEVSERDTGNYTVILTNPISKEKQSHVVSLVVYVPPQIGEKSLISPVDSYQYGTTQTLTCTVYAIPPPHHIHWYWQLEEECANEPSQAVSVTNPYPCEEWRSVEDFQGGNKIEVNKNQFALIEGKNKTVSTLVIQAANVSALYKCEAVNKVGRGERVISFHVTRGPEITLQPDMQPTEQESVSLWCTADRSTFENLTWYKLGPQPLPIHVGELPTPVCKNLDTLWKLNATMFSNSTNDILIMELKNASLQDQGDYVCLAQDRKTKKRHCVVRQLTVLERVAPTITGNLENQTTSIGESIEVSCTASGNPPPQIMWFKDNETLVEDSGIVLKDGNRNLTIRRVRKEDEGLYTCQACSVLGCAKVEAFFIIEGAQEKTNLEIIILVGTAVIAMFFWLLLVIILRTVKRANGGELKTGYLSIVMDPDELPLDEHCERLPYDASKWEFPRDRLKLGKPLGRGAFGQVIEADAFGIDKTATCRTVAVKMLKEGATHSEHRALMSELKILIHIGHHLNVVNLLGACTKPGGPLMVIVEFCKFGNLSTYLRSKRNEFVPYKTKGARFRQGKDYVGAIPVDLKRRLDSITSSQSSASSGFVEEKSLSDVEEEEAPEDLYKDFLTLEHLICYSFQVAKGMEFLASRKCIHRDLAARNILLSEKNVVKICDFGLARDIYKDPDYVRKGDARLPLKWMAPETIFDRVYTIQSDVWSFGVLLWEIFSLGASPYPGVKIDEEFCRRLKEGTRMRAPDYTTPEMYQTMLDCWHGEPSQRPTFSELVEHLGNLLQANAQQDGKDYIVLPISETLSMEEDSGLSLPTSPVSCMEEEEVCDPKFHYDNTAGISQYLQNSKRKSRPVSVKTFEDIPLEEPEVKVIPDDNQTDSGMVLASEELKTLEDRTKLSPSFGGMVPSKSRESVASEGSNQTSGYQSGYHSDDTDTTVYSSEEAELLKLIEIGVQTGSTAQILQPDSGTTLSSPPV
Description: Inhibition of human recombinant VEGF-R2 expressed in baculovirus expression system using GST-PLCgamma as substrate after 1 hr by time-resolved fluorescence analysis

[24] = Antiangiogenic activity in HMVEC assessed as inhibition of VEGF-induced survival; type: functional, Homo sapiens
HUVEC [25] = assay: Antiangiogenic activity in HUVEC assessed as inhibition of angiopoietin 1-induced chemotaxis at > = 50 nM by boyden chamber assay; type: functional, cell-based; conditions: Homo sapiens
[26] = Antiangiogenic activity in BAEC assessed as inhibition of VEGF-induced survival; type: functional, Bos taurus
HUVEC [27] = assay: Antiangiogenic activity in HUVEC assessed as inhibition of FGF-induced proliferation; type: functional, cell-based; conditions: Homo sapiens
P388 [28] = assay: Antitumor activity against mouse P388 cells xenografted in DBA/2 mouse assessed as mean survival at 30 mg/kg, po qd for 14 days followed by readministeration after 7 days; type: functional
Adenosine receptor A2a [29] = target: T1, Adenosine receptor A2a; assay: Inhibition of adenosine A2A receptor
[30] = Metabolic stability in dog liver S9 fraction assessed as compound remaining after 2 hrs; type: ADME, subcellular, Canis lupus familiaris; conditions: read-out: Stability
[31] = Cmax in athymic nude mouse plasma xenografted with human A375 cells at 10 mg/kg, po
[32] = Metabolic stability in rat liver S9 fraction assessed as compound remaining after 2 hrs; type: ADME, subcellular; conditions: read-out: Stability
[33] = Antitumor activity against human U251MG cells xenografted in athymic nude mouse assessed as complete tumor regression at 3 mg/kg, po bid; type: functional, U-251
A-375 [34] = assay: Antitumor activity against human A375 cells xenografted in athymic nude mouse assessed as partial tumor regression at 10 mg/kg, po bid; type: functional
[35] = target: Platelet-derived growth factor receptor alpha (Homo sapiens, UniProt P16234); assay: Inhibition of human PDGFRalpha using ATP as substrate
[36] = Antitumor activity against human U251MG cells xenografted in athymic nude mouse assessed as complete tumor regression at 1 mg/kg, po bid; type: functional, U-251
P388 [37] = assay: Antitumor activity against mouse P388 cells xenografted in DBA/2 mouse assessed as mean survival at 30 mg/kg, po qd (reference value: 14 days); type: functional
[38] = target: Muscarinic acetylcholine receptor M2 (Homo sapiens) (UniProt P08172); assay: Inhibition of muscarinic M2 receptor at 10 uM
Muscarinic acetylcholine receptor M2 (Homo sapiens), sequence (P08172 whole entry): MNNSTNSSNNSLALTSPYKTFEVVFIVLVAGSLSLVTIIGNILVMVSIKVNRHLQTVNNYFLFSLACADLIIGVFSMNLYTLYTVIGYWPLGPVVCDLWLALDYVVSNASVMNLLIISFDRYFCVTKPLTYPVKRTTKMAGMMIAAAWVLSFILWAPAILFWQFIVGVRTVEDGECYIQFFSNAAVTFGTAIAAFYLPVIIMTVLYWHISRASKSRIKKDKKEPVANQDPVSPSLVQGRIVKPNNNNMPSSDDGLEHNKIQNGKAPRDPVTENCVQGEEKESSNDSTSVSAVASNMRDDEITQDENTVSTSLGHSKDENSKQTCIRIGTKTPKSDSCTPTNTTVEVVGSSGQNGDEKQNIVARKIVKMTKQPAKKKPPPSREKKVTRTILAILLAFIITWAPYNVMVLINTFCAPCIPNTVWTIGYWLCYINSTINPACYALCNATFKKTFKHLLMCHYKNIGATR

[39] = Inhibition of PDGFR at 1 uM
Cytochrome P450 3A4 [40] = target: T2, Cytochrome P450 3A4; assay: Inhibition of CYP3A4; type: ADME
P388 [41] = assay: Antitumor activity against mouse P388 cells xenografted in DBA/2 mouse assessed as mean survival at 30 mg/kg, po qd for 7 days followed by readministeration after 7 days; type: functional
[42] = Toxicity in dog purkinje fibres assessed as drug-induced QT interval change; type: tissue-based, Canis lupus familiaris, Purkinje fiber
[43] = target: Serine/threonine-protein kinase Chk2 (Homo sapiens, UniProt O96017); assay: Inhibition of human CHK2 using ATP as substrate
[44] = Cmax in cynomolgus monkey at 3 mg/kg, po; type: ADME, organism-based, Macaca fascicularis; design: dose 3 mg/kg, route oral; conditions: in vivo
Cytochrome P450 2D6 = Cytochrome P450 2D6 (Homo sapiens, UniProt P10635); assay: Inhibition of CYP2D6; type: ADME
Mus musculus [45] = assay: Toxicity in athymic nude mouse bearing human U251MG cells assessed as body weight change at 1 to 30 mg/kg, po; type: organism-based, U-251; design: dose 1-30 mg/kg, route oral; conditions: in vivo
Mus musculus [46] = assay: Toxicity in athymic nude mouse bearing human U251MG cells assessed as apparent toxicity at 1 to 30 mg/kg, po; type: organism-based, U-251; design: dose 1-30 mg/kg, route oral; conditions: in vivo
[47] = target: T3, Vascular endothelial growth factor receptor 2; remark: listed apart in the source
Description: Inhibition of human VEGFR2 expressed in porcine PAE145 cells cotransfected with chimeric rat TRK-A/KDR receptor after 1 hr by immunofluorescence assay

HUVEC [48] = assay: Antiangiogenic activity in HUVEC assessed as inhibition of FGF-induced survival; type: functional, cell-based; conditions: Homo sapiens
A-375 [49] = assay: Antitumor activity against human A375 cells xenografted in athymic nude mouse assessed as complete tumor regression at 0.3 mg/kg, po bid
[50] = Clearance in cynomolgus monkey at 0.5 mg/kg, iv; type: ADME, organism-based, Macaca fascicularis; design: dose 0.5 mg/kg, route intravenous; conditions: in vivo
Cytochrome P450 2C19 = Cytochrome P450 2C19 (Homo sapiens, UniProt P33261); assay: Inhibition of CYP2C19; type: ADME
Mus musculus [51] = assay: Toxicity in athymic nude mouse bearing human A375 cells assessed as apparent toxicity at 0.1 to 10 mg/kg, po; type: organism-based, A-375; design: dose 0.1-10 mg/kg, route oral; conditions: in vivo

Fibroblast growth factor receptor 3, sequence (P22607 whole entry): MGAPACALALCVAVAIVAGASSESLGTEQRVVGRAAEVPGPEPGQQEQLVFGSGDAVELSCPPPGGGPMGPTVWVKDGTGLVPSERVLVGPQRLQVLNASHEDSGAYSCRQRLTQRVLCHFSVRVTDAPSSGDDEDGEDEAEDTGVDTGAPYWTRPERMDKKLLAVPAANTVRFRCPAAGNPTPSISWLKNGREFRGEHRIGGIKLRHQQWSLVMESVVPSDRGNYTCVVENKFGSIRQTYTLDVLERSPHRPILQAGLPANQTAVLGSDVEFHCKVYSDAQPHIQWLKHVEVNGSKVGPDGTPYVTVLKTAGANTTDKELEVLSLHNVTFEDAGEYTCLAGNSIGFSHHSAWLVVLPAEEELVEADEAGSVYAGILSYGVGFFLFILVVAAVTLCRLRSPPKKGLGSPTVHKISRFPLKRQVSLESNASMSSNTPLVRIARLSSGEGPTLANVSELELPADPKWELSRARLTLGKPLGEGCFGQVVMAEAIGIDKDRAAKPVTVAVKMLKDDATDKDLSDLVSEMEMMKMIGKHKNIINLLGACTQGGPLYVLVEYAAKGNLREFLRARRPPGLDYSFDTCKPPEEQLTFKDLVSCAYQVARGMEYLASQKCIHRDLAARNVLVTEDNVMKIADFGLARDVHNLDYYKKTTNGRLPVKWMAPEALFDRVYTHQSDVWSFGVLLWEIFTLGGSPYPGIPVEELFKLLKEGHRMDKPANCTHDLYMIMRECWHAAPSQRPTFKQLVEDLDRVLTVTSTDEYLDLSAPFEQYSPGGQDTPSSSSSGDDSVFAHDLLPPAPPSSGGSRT

## CC(C)Cn1c2ccc(Nc3ncccn3)cc2c2c3c(c4c(c21)CCc1nn(C)cc1-4)C(=O)NC3 [CEP-11981]
[1]
  pIC50: 7.05
[2]
  bioavailability: 44%
[3]
  half-life: 3 h
[4]
  inhibition: Active
[5]
  pIC50: 7.15
[6]
  bioavailability: 93%
A-375 [7]
  Activity: 20%
HUVEC [8]
  pEC50: 8.70
[9]
  Cmax: 140 ng/g
[10]
  pKi: 5.54
[11]
  inhibition: Active
[12]
  Activity: Non-toxic
[13]
  inhibition: > 80%
[14]
  AUC: 2480 ng·h/mL
Adenosine receptor A2a [15]
  inhibition: > 80%
[16]
  Papp: > 4 ×10⁻⁶ cm/s
[17]
  pIC50: 8.52
A-375 [18]
  inhibition in vivo at 0.3 mg/kg: 71%
A-375 [19]
  Activity: 10%
HUVEC [20]
  pEC50: 8.10
[21]
  pEC50: 8.10
Cytochrome P450 3A4 [22]
  Activity: Not Active
[23]
  pIC50: 8.40
[24]
  pEC50: 8.10
HUVEC [25]
  Activity: Active
[26]
  pEC50: 8.10
HUVEC [27]
  pEC50: 8.10
P388 [28]
  MSD: 23.5 days
Adenosine receptor A2a [29]
  pKi: 6.30
[30]
  remaining at 2 h: 65%
[31]
  Cmax: 456 ng/mL
[32]
  remaining at 2 h: 65%
[33]
  Activity: 0%
A-375 [34]
  Activity: 50%
[35]
  pIC50: 6.61
[36]
  Activity: 0%
P388 [37]
  MSD: 23 days
[38]
  inhibition: > 80%
[39]
  inhibition: Active
Cytochrome P450 3A4 [40]
  pIC50: < 4.52
P388 [41]
  MSD: 18.5 days
[42]
  Activity: Non-toxic
[43]
  pIC50: 6.85
[44]
  Cmax: 491 ng/mL
Cytochrome P450 2D6
  pIC50: < 4.52
Mus musculus [45]
  Activity: Non-toxic
Mus musculus [46]
  Activity: Non-toxic
[47]
  pIC50: > 8.00
HUVEC [48]
  pEC50: 8.10
A-375 [49]
  Activity: 10%
[50]
  clearance: 18 mL/min/kg
Cytochrome P450 2C19
  pIC50: 5.05
Mus musculus [51]
  Activity: Non-toxic
